Measurements taken from PMC10487970, “Exploring the Impact of Head Group Modifications on the Anticancer Activities of Fatty-Acid-like Platinum(IV) Prodrugs: A Structure–Activity Relationship Study” (International Journal of Molecular Sciences, 2023).

Legend:
[1] = system: A2780cis ovarian cancer cells; assay: MTT cytotoxicity assay, A2780cis; assay type: cell-based, human; details: 24 h treatment, cisplatin-resistant A2780cis
Experimental: (§1) Cytotoxicity profiles of FALP derivatives with various head groups . The in vitro anticancer activity of the Pt(IV) prodrugs (1–9) was assessed using the 3-(4,5-dimethylthiazol-2-yl)-2,5-diphenyltetrazolium bromide (MTT) assay. This study utilized two human cancer cell lines, namely A2780cis and MDA-MB-231. A2780cis is an ovarian cancer cell line known for its resistance to conventional platinum chemotherapy, making it a formidable challenge to treat. On the other hand, MDA-MB-231 represents a triple-negative breast cancer cell line, which is currently recognized as one of the difficult-to-treat cancer types. The cells were treated with 1–9 or cisplatin for 24 h, and the cell viability was evaluated. The IC50 values, which represent the concentration of the drug required to inhibit the growth of cells by 50%, are reported in the table in Figure 1B. […] Overall, the head group modifications of FALPs result in an alternation of therapeutic effects, which is a promising way to fine-tune the anticancer activity of this class of metallodrugs.
(§2) Cell culture. A2780cis cell lines were purchased from Sigma-Aldrich and cultured in RPMI 1640 with L-glutamine (Corning, New York, NY, USA) supplemented with 10% FBS (Atlanta Biologicals, USA) and 1% penicillin-streptomycin (Corning). The MDA-MB-231 cell line was obtained via American Type Culture Collection, and cultured in DMEM 1 g/L glucose, with L-glutamine and sodium pyruvate (Corning) supplemented with 10% FBS and 1% penicillin-streptomycin (Corning). All cell lines were cultured at 37 °C under an atmosphere containing 5% CO2. Cells were passaged upon reaching 80–90% confluence via trypsinization and split in a 1:5 ratio.
(§3) MTT assays. Cytotoxicity profiles of compounds 1–9 and cisplatin against different cell lines (A2780cis and MDA-MB-231) were evaluated using the MTT assays. A volume of 100 μL of a RPMI or DMEM containing 8 × 10^4 cells/mL was seeded in 96-well plates. The plates were incubated for 24 h at 37 °C with 5% CO2 to allow for adherence of cells. A volume of 50 μL of RPMI or DMEM with various concentrations of cisplatin or compounds 1–9 were added to each well of the microplates. The Pt concentrations were determined via GFAAS. After 24 h, a volume of 30 μL of MTT (5.0 mg/mL in PBS, Alfa Aesar, Haverhill, MA, USA) was added to each well of the microplates. After 24 h, the medium was aspirated, and 200 μL of DMSO was added to each well. The plates were shaken gently on a shaker at r.t. for 10 min. Then, the absorbance of purple formazan was recorded at 562 nm with a BioTek ELx800 plate reader. IC50 values were determined using Origin software v7.0. All experiments were performed in triplicate.

[2] = system: MDA-MB-231 breast cancer cells; assay: MTT cytotoxicity assay, MDA-MB-231; assay type: cell-based, human; details: 24 h treatment, triple-negative MDA-MB-231
Experimental: as §1, §2, §3

[3] = GFAAS analysis of Log P values (H2O:octanol); assay type: physicochemical; details: H2O:octanol 1:1, Pt content of each phase by GFAAS; whole compound
Experimental: The samples were first dissolved with DMSO to create 200 µM stocks. From these stocks, 50 µL was added to a H2O:Octanol mixture with a 1:1 volume ratio. This mixture was vortexed for 5 min and subsequently centrifuged for 3 min at 3000 rpm. Following centrifugation, the H2O and octanol layers were isolated for analysis. The Pt content in each phase was quantified using GFAAS to calculate the Log P value.

A2780cis cells [4] = assay: GFAAS analysis of cellular platinum contents; assay type: cell-based, human; details: [Pt] = 1 μM, 24 h
From the text: (§4) Cell entry and mitochondrial accumulation of FALP derivatives with head groups of different hydrophobicities. Our next objective was to gain a more detailed understanding of how modifications to the head group of FALPs affect their anticancer activities through hydrophobicity. Cellular uptake is widely recognized as a critical factor in the activity of metallodrugs. The influence of hydrophobicity on the cellular uptake of therapeutic molecules has been widely acknowledged, with an increase in hydrophobicity typically promoting cell entry. To this end, we conducted a graphite furnace atomic absorption spectroscopic (GFAAS) analysis of the cellular uptake for FALPs with various head group modifications, including 2 and 7. […] We previously discovered that mitochondria play significant roles in the mechanism of action of FALPs, so we further investigated how the hydrophobicity of the head group modifications affects the mitochondrial accumulation of FALPs. […] In summary, the introduction of a hydrophilic head group in FALPs promotes cell entry and mitochondrial accumulation.
GFAAS analysis of cellular platinum contents in A2780cis cells. […] The remaining live cells were harvested via trypsinization and counted. […] The Pt contents in the cells were analyzed via GFAAS. […]

[5] = system: mitochondria of A2780cis cells; assay: Measurement of mitochondrial platinum contents; assay type: cell-based, human; details: [Pt] = 1 μM, 24 h, isolated mitochondria, GFAAS
From the text: as §4
Measurements of mitochondrial platinum contents in A2780cis cells. […] Next, the wells were washed with PBS (1 mL) and harvested via trypsinization (1 mL) and counted. […] Next, the fractions were diluted 4× in water and the platinum content was analyzed using GFAAS. […]

A2780cis cells [6] = assay: Flow cytometric analysis of apoptosis (Annexin V/PI); assay type: cell-based, human; details: [Pt] = 0.5 μM, 48 h
Experimental: (§5) Cellular Responses of FALP derivatives with head groups of different hydrophobicity. Based on the observation that hydrophilic head group modifications lead to increased intracellular Pt levels, we formulated the hypothesis that such modifications would result in greater mitochondrial and DNA damage, as well as increased apoptosis. MitoSOX was utilized to assess the levels of mitochondrial ROS, while the γH2AX levels were analyzed to determine DNA damage. As mitochondrial and DNA damage are known to promote apoptosis, Annexin V/PI assays were also conducted to examine the apoptotic effects. A flow cytometric analysis was used to evaluate the mitochondrial ROS, γH2AX, and apoptosis in the cancer cells treated with FALPs (2 and 7) in the experiments. […] Based on the results, it can be inferred that the FALP derivative (2) with a hydrophilic head group modification induces mitochondrial and DNA damage as well as apoptosis more effectively than the one (7) with a hydrophobic modification.
Flow cytometric analysis of apoptosis. A2780cis cells were seeded in a 6-well plate at a concentration of 3 × 10^5 cells/well. Cells were then incubated at 37 °C 5% CO2 for 24 h. […] Both live and dead cells were collected, resuspended in 1mL PBS, and counted. […] Cells were then analyzed with FL-1 and FL-3 channels on a BD Accuri C6 flow cytometer and data were processed with FlowJo.

A2780cis cells [7] = assay: LIVE/DEAD cell viability imaging assay; assay type: cell-based, human; details: [Pt] = 1 μM, 24 h
Experimental: LIVE/DEAD cell viability assays. […] Before the assay, the cells were washed with 1 mL PBS and 1 mL dye-free RPMI to remove serum esterase activity that is generally present in serum-supplemented growth media. A 100 μL volume of LIVE/DEAD working solution (formed by mixing 2 µM of calcein AM and 2 μM ethidium homodimer-1 in PBS) was carefully added to the disk, which was then incubated at r.t. for 30 min. Images were acquired using an Olympus IX70 inverted epifluorescence microscope equipped with a digital CCD camera (QImaging, Surrey, BC, Canada). Images were processed, and intensities were quantified with ImageJ software (NIH).

[8] = system: mitochondrial ROS in A2780cis cells; assay: Flow cytometric analysis of MitoSOX (mitochondrial ROS); assay type: cell-based, human; details: [Pt] = 10 μM, 24 h, control 41.1%
Experimental: as §5
Flow cytometric analysis of MitoSOX. A2780cis cells were seeded in 6-well plate at a concentration of 6 × 10^4 cells/mL and incubated overnight. […] The cells were then re-suspended in PBS with 0.5% BSA to reach 10^6 cells/mL and analyzed with BD Accuri C6 flow cytometer using FL-2 channel, and data were processed with FlowJo v10.

## CCCCCCCCCCCCCCCCNC(=O)[O][Pt]([NH2])([NH2])([Cl])([Cl])[O]C(=O)CCC(=O)NCC(=O)OCC [Compound 5]
[1]
  IC50: 0.39 ± 0.08 µM
[2]
  IC50: 5.22 ± 1.03 µM

## CCCCCCCCCCCCCCCCNC(=O)[O][Pt]([Cl])([Cl])[O]C(=O)CCC(=O)O.N.N [Compound 1]
[1]
  IC50: 1 ± 0.06 µM
[2]
  IC50: 6.3 ± 0.4 µM

## CCCCCCCCCCCCCCCCNC(=O)[O][Pt]([NH2])([NH2])([Cl])([Cl])[O]C(=O)CCC(=O)NCCCCCC [Compound 7]
[1]
  IC50: 3.75 ± 0.47 µM
[2]
  IC50: 7.05 ± 0.8 µM
[3]
  Log P determined via GFAAS: 2.57
A2780cis cells [4]
  Cellular uptake (cellular Pt content): 60.03 ± 8.01 pmol Pt/million cells
[5]
  Mitochondrial Pt content: 11.72 ± 2.76 pmol Pt/million cells
A2780cis cells [6]
  Apoptosis, Annexin V/PI plot, upper right quadrant (late stages of apoptosis): 3.58%
A2780cis cells [7]
  Live/dead cell imaging result: ineffective

## CCCCCCCCCCCCCCCCNC(=O)[O][Pt]([NH2])([NH2])([Cl])([Cl])[O]C(=O)CCC(=O)NCCOCCO [Compound 2]
[1]
  IC50: 0.3 ± 0.06 µM
[2]
  IC50: 0.76 ± 0.03 µM
[3]
  Log P determined via GFAAS: 1.97
A2780cis cells [4]
  Cellular uptake (cellular Pt content): 496.6 ± 16.09 pmol Pt/million cells
[5]
  Mitochondrial Pt content: 31.7 ± 5.1 pmol Pt/million cells
A2780cis cells [6]
  Apoptosis, Annexin V/PI plot, upper right quadrant (late stages of apoptosis): 23.3%
A2780cis cells [7]
  Live/dead cell imaging result: effectively eliminated all drug-resistant A2780cis ovarian cancer cells

## CCCCCCCCCCCCCCCCNC(=O)[O][Pt]([NH2])([NH2])([Cl])([Cl])[O]C(=O)CCC(=O)NCCC [Compound 6]
[1]
  IC50: 1.12 ± 0.07 µM
[2]
  IC50: 1.5 ± 0.4 µM

## CCCCCCCCCCCCCCCCNC(=O)CCC(=O)[O][Pt]([NH2])([NH2])([Cl])([Cl])[O]C(=O)NCC(=O)OCC [Compound 9]
[1]
  IC50: 0.4 ± 0.01 µM
[2]
  IC50: 1.42 ± 0.07 µM

## CCCCCCCCCCCCCCCCNC(=O)[O][Pt]([NH2])([NH2])([Cl])([Cl])[O]C(=O)CCC(=O)NCCOC [Compound 3]
[1]
  IC50: 0.7 ± 0.04 µM
[2]
  IC50: 1.9 ± 0.3 µM

## CCCCCCCCCCCCCCCCNC(=O)[O][Pt]([NH2])([NH2])([Cl])([Cl])[O]C(=O)CCC(=O)NC12CC3CC(CC(C3)C1)C2 [Compound 8]
[1]
  IC50: 5.07 ± 0.71 µM
[2]
  IC50: 6.09 ± 0.3 µM

## N.N.[Cl][Pt][Cl] [Cisplatin, cisplatin, reference compound]
[1]
  IC50: 109 ± 13.5 µM
[2]
  IC50: 92 ± 8 µM
[8]
  MitoSOX (mitochondrial ROS, flow cytometry): insignificant change

## CCCCCCCCCCCCCCCCNC(=O)[O][Pt]([NH2])([NH2])([Cl])([Cl])[O]C(=O)CCC(=O)NCC#N [Compound 4]
[1]
  IC50: 0.41 ± 0.05 µM
[2]
  IC50: 1.63 ± 0.12 µM
